Measurements: the supplement of paper PMC7444282

Tests used:
Vero E6 [1] = test: cytotoxicity CC50 (uninfected Vero E6, ATP content); higher = less cytotoxic; settings: virus: none (uninfected); 72 h
Experimental: (§1)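 Read-out is CellTiter-Glo ATP luminescence, normalised to DMSO-only wells (0% rescue) and no-virus wells (100% rescue). The cytotoxicity counter-assay used the same protocol without virus, normalised to DMSO (100% viability) and hyamine (0% viability). Confirmation used 8-point 1:3 titrations in duplicate, fitted to a four-parameter Hill equation.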

Vero E6 [2] = test: cytotoxicity maximal efficacy (% viability loss, DMSO = 0%, hyamine = 100%); higher = more cytotoxic; settings: virus: none (uninfected); 72 h
Experimental: as §1

Vero E6 [3] = test: CPE rescue EC50 (SARS-CoV-2 infected Vero E6); higher = less potent antiviral; settings: virus: SARS-CoV-2 USA_WA1/2020, MOI 0.002; 72 h
Experimental: as §1

Compound: CC1(C)CC(=O)c2c(C(F)(F)F)nn(-c3ccc(C(N)=O)c(N[C@H]4CC[C@H](OC(=O)CN)CC4)c3)c2C1
- cytotoxicity CC50 (Vero E6 [1]): 562 nM

Compound: O=S(=O)(Cc1ccccc1)Nc1ccc(-c2ccc3c(cnn3-c3ccc(F)cc3)c2)c(C(F)(F)F)c1
- cytotoxicity CC50 (Vero E6 [1]): 14100 nM
- cytotoxicity maximal efficacy (Vero E6 [2]): 24.3%

Compound: Cn1c(Nc2ccc(C(F)(F)F)cc2)nc2cc(Oc3ccnc(-c4ncc(C(F)(F)F)[nH]4)c3)ccc21
- cytotoxicity CC50 (Vero E6 [1]): 316 nM
- CPE rescue EC50 (Vero E6 [3]): 794 nM

Compound: O=C(O)c1ccc(CCCc2ccc(OCCc3ccc(F)cc3)cc2)o1
- CPE rescue EC50 (Vero E6 [3]): 141 nM

Compound: CC(=O)c1c(OCCN2CCCCC2)c(OCCC(C)c2ccc(F)cc2)c2oc(C)nc2c1C (stereo unspecified)
- cytotoxicity CC50 (Vero E6 [1]): 14100 nM
- cytotoxicity maximal efficacy (Vero E6 [2]): 33.2%

Compound: C/C(=N\Nc1nnc2c(n1)[nH]c1c(C)cccc12)c1ccccn1
- cytotoxicity CC50 (Vero E6 [1]): 355 nM
- cytotoxicity maximal efficacy (Vero E6 [2]): 76.3%

Compound: CC(C)(N)c1ccc(-c2nc3ccccc3nc2-c2ccccc2)cc1
- cytotoxicity CC50 (Vero E6 [1]): 12600 nM
- cytotoxicity maximal efficacy (Vero E6 [2]): 34.2%

Compound: C[C@@H]1O[C@@H](O[C@@H]2[C@@H](O)[C@H](O[C@@H]3[C@@H](O)[C@@H](O)[C@H](O[C@H]4[C@H](OC(=O)[C@]56CCC(C)(C)C[C@H]5C5=CCC7[C@@]8(C)C[C@H](O)[C@H](O[C@@H]9O[C@@H](C)[C@H](O)[C@@H](O)[C@H]9O)[C@@](C)(CO)C8CC[C@@]7(C)[C@]5(C)C[C@H]6O)O[C@H](C)[C@H](O)[C@@H]4O)O[C@H]3C)OC[C@H]2O)[C@H](O)[C@H](O)[C@H]1O (stereo partly specified)
- CPE rescue EC50 (Vero E6 [3]): 851 nM

Compound: COC(=O)[C@@]12OC[C@]34[C@H]([C@@H](O)[C@@H]1O)[C@@]1(C)CC(=O)C(O)=C(C)[C@@H]1C[C@H]3OC(=O)[C@H](OC(=O)/C=C(\C)C(C)C)[C@@H]24
- cytotoxicity CC50 (Vero E6 [1]): 142 nM

Compound: COCCN1CCN(Cc2ccc(-c3n[nH]c4c3C(=O)c3c(NC(=O)NN5CCOCC5)cccc3-4)cc2)CC1
- cytotoxicity CC50 (Vero E6 [1]): 316 nM

Compound: CN(CCc1ccc(Nc2ncc(-c3cccnc3)s2)cc1)Cc1ccccc1
- cytotoxicity CC50 (Vero E6 [1]): 12600 nM
- cytotoxicity maximal efficacy (Vero E6 [2]): 44.4%

Compound: CCOc1ccc(-c2nc(-c3cccc4c3CCC4NCCO)no2)cc1OCC (stereo unspecified)
- cytotoxicity CC50 (Vero E6 [1]): 631 nM

Compound: O=C(c1ccc(-c2ccc(Cl)cc2)o1)N(Cc1ccccn1)c1ccc(N2CCNCC2)cc1
- cytotoxicity CC50 (Vero E6 [1]): 11200 nM
- cytotoxicity maximal efficacy (Vero E6 [2]): 95.2%

Compound: CCC(C)C(=O)OC12C(OC(C)=O)C(C)C3(O)C(C=C(CO)CC4(O)C(=O)C(C)=CC43)C1C2(C)C (stereo unspecified)
- CPE rescue EC50 (Vero E6 [3]): 982 nM

Compound: c1ccc2c(-c3cnn4cc(-c5ccc(OCCN6CCOCC6)cc5)cnc34)ccnc2c1
- cytotoxicity CC50 (Vero E6 [1]): 5520 nM
- cytotoxicity maximal efficacy (Vero E6 [2]): 29.1%

Compound: CC(C)C[C@H](NC(=O)[C@H](Cc1ccccc1)NC(=O)OCc1ccccc1)C(=O)C=O
- cytotoxicity CC50 (Vero E6 [1]): 11200 nM
- cytotoxicity maximal efficacy (Vero E6 [2]): 33.4%

Compound: OCCCNc1cc(-c2ccnc(Nc3cccc(Cl)c3)n2)ccn1
- cytotoxicity CC50 (Vero E6 [1]): 112 nM

Compound: CC(C)C(=O)O[C@H]1[C@@H]2[C@H](C)C(=O)O[C@@H]2C[C@@H](C)[C@@H]2C=CC(=O)[C@]21C
- cytotoxicity CC50 (Vero E6 [1]): 12600 nM
- cytotoxicity maximal efficacy (Vero E6 [2]): 34.2%

Compound: CN(CCCNC(=O)c1ccc2nc3c(c(Cl)c2c1)CCCC3)Cc1ccccc1
- cytotoxicity CC50 (Vero E6 [1]): 12600 nM
- cytotoxicity maximal efficacy (Vero E6 [2]): 39.1%

Compound: COC[C@H]1OC(=O)/C(=C/N(C)CCCN(C)C)C2=C(O)C(=O)C3=C([C@H](OC(C)=O)C[C@]4(C)[C@@H](O)CC[C@@H]34)[C@]21C
- cytotoxicity CC50 (Vero E6 [1]): 8910 nM
- cytotoxicity maximal efficacy (Vero E6 [2]): 62.1%

Compound: COc1ccc(-c2csc(NC(=O)[C@H]3CCCCN3S(=O)(=O)c3ccc(C)cc3)n2)cc1
- cytotoxicity CC50 (Vero E6 [1]): 2000 nM

Compound: C/C(=N\NC(=O)c1cccc(S(=O)(=O)N2CCOCC2)c1)c1cc(Cl)ccc1O
- cytotoxicity CC50 (Vero E6 [1]): 1000 nM

Compound: CC(=NNC(=S)N1CCC1)c1ccccn1
- cytotoxicity CC50 (Vero E6 [1]): 355 nM

Compound: COc1ccc2c(Oc3ccc(NC(=O)c4c(C)n(CC(C)(C)O)n(-c5ccccc5)c4=O)cc3F)ccnc2c1
- cytotoxicity CC50 (Vero E6 [1]): 14100 nM
- cytotoxicity maximal efficacy (Vero E6 [2]): 70.3%

Compound: C/C=C(\C)C(=O)OC1C(C)C2(O)C3C=C(C)C(=O)C3CC(CO)=CC2C2C(C)(C)C12OC(C)=O (stereo unspecified)
- cytotoxicity CC50 (Vero E6 [1]): 348 nM

Compound: c1ccc(-c2ccc(CNc3nc(-c4ccccn4)nnc3-c3ccccc3)cc2)cc1
- cytotoxicity CC50 (Vero E6 [1]): 562 nM
- CPE rescue EC50 (Vero E6 [3]): 631 nM

Compound: C(=N\Nc1nc(Nc2ccccc2)nc(N2CCOCC2)n1)/c1c[nH]c2ccccc12
- CPE rescue EC50 (Vero E6 [3]): 113 nM

Compound: CC(C)(C[C@@](O)(Cc1cc2ccncc2[nH]1)C(F)(F)F)c1cc(F)ccc1O
- cytotoxicity CC50 (Vero E6 [1]): 15800 nM
- cytotoxicity maximal efficacy (Vero E6 [2]): 22.4%

Compound: O=c1cc(-c2cccc3c2Sc2ccccc2S3)oc(N2CCOCC2)c1
- cytotoxicity CC50 (Vero E6 [1]): 10000 nM
- cytotoxicity maximal efficacy (Vero E6 [2]): 42.6%

Compound: CN(C)c1cc2c(cc1Sc1nc3c(N)nccc3n1CCNCC(C)(C)C)OCO2
- cytotoxicity CC50 (Vero E6 [1]): 708 nM

Compound: NC(=O)c1ccccc1Nc1ccnc(Nc2cccc(O)c2)n1
- cytotoxicity CC50 (Vero E6 [1]): 1000 nM

Compound: O[C@H]1[C@H]2c3cc4c(cc3CN3CCC(=C[C@@H]1O)[C@H]23)OCO4
- CPE rescue EC50 (Vero E6 [3]): 631 nM

Compound: CCc1ccc(/C=C2/SC(=S)NC2=O)cc1
- cytotoxicity CC50 (Vero E6 [1]): 12600 nM
- cytotoxicity maximal efficacy (Vero E6 [2]): 34.2%

Compound: C[C@@H]1O[C@@H](O[C@H]2[C@H](OC(=O)[C@]34CCC(C)(C)C[C@H]3C3=CCC5[C@@]6(C)CC[C@H](O[C@@H]7O[C@H](CO[C@@H]8OC[C@H](O)[C@H](O)[C@H]8O)[C@@H](O)[C@H](O)[C@H]7O)C(C)(C)C6CC[C@@]5(C)[C@]3(C)C[C@H]4O)OC[C@@H](O)[C@@H]2O)[C@H](O)[C@H](O)[C@H]1O[C@@H]1OC[C@H](O)[C@H](O[C@@H]2OC[C@@H](O)[C@H](O)[C@H]2O)[C@H]1O (stereo partly specified)
- CPE rescue EC50 (Vero E6 [3]): 602 nM

Compound: CCC[C@@H](C=O)NC(=O)[C@H](CC(C)C)NC(=O)[C@H](CC(C)C)NC(=O)OCc1ccccc1
- cytotoxicity CC50 (Vero E6 [1]): 1130 nM
- cytotoxicity maximal efficacy (Vero E6 [2]): 115%

Compound: N#Cc1ccc(O[C@@H]2c3ccccc3C[C@H]2N2CCC[C@@H](N)C2)c(Cl)c1
- cytotoxicity CC50 (Vero E6 [1]): 12600 nM
- cytotoxicity maximal efficacy (Vero E6 [2]): 52.9%

Compound: COc1ccc2sc(NC(c3ccc(OC(F)F)cc3)c3ccc4cccnc4c3O)nc2c1 (stereo unspecified)
- cytotoxicity CC50 (Vero E6 [1]): 708 nM
- CPE rescue EC50 (Vero E6 [3]): 891 nM

Compound: CC(C)[C@H]1C(=O)N[C@H](CO)Cc2c[nH]c3cccc(c23)N1C
- cytotoxicity CC50 (Vero E6 [1]): 1240 nM
- cytotoxicity maximal efficacy (Vero E6 [2]): 20.4%

Compound: CO/C1=C\C(C)=C\[C@@H](C)[C@@H](O)[C@@H](C)C/C(C)=C/C=C\[C@H](OC)C([C@@H](C)[C@@H](O)[C@H](C)[C@@]2(O)C[C@@H](O)[C@H](C)C(C(C)C)O2)OC1=O (stereo partly specified)
- cytotoxicity CC50 (Vero E6 [1]): 101 nM

Compound: C[C@@H]1O[C@@H](O[C@H]2[C@H](OC(=O)[C@]34CCC(C)(C)C[C@H]3C3=CCC5[C@@]6(C)CC[C@H](O[C@@H]7O[C@H](CO[C@@H]8OC[C@H](O)[C@H](O)[C@H]8O)[C@@H](O)[C@H](O)[C@H]7O)C(C)(C)C6CC[C@@]5(C)[C@]3(C)C[C@H]4O)OC[C@@H](O)[C@@H]2O)[C@H](O)[C@H](O[C@@H]2OC[C@](O)(CO)[C@H]2O)[C@H]1O[C@@H]1OC[C@H](O)[C@H](O[C@@H]2OC[C@@H](O)[C@H](O)[C@H]2O)[C@H]1O (stereo partly specified)
- CPE rescue EC50 (Vero E6 [3]): 955 nM

Compound: COc1ccccc1OCCNCC(O)CCOc1cccc2[nH]c3ccccc3c12 (stereo unspecified)
- cytotoxicity CC50 (Vero E6 [1]): 10000 nM
- cytotoxicity maximal efficacy (Vero E6 [2]): 16.2%

Compound: Cn1cc(-c2ccc(-c3cncc(Cl)c3N3CCC4(CCNC4=O)CC3)cc2)cn1
- cytotoxicity CC50 (Vero E6 [1]): 282 nM

Compound: COc1c(C)cnc(Cn2cnc3c(Cl)nc(N)nc32)c1C
- cytotoxicity CC50 (Vero E6 [1]): 355 nM

Compound: OC1CCC(Oc2cccc3cnc(Nc4ccc5nc[nH]c5c4)nc23)CC1 (stereo unspecified)
- cytotoxicity CC50 (Vero E6 [1]): 891 nM
- cytotoxicity maximal efficacy (Vero E6 [2]): 50.5%

Compound: Cn1cc(S(=O)(=O)c2ccc(Cl)cc2)c2cccc(N3CCNCC3)c21
- cytotoxicity CC50 (Vero E6 [1]): 11200 nM
- cytotoxicity maximal efficacy (Vero E6 [2]): 48.3%

Compound: CC(=O)OC[C@]12C[C@H](OC(=O)CC(C)C)C(C)=C[C@H]1O[C@@H]1[C@H](O)[C@@H](O)[C@@]2(C)[C@]12CO2
- cytotoxicity CC50 (Vero E6 [1]): 127 nM

Compound: O=S(=O)(NCC1CC1)c1ccc(Nc2nccc(N3CCCc4cc(O)ccc43)n2)cc1
- CPE rescue EC50 (Vero E6 [3]): 794 nM
